According to ChEMBL document CHEMBL5500340, “Synthesis and biological activity of thiophene bioisosteres of natural styryl lactone goniofufurone and related compounds” (Eur J Med Chem, 2024):

Tests used:
K562 [1] = experiment: Antiproliferative activity against human K562 cells by MTT colorimetric assay; format: functional, cell-based
HL-60 = experiment: Antiproliferative activity against human HL-60 cells by MTT colorimetric assay; format: functional, cell-based
Jurkat = experiment: Antiproliferative activity against human Jurkat cells by MTT colorimetric assay; format: functional, cell-based
Raji [2] = experiment: Antiproliferative activity against human Raji cells by MTT colorimetric assay; format: functional, cell-based
MCF7 = experiment: Antiproliferative activity against human MCF7 cells by MTT colorimetric assay; format: functional, cell-based
MDA-MB-231 = experiment: Antiproliferative activity against human MDA-MB-231 cells by MTT colorimetric assay; format: functional, cell-based
HeLa = experiment: Antiproliferative activity against human HeLa cells by MTT colorimetric assay; format: functional, cell-based
A549 [3] = experiment: Antiproliferative activity against human A549 cells by MTT colorimetric assay; format: functional, cell-based
MRC5 = experiment: Antiproliferative activity against human MRC5 cells by MTT colorimetric assay; format: functional, cell-based
A549 [4] = experiment: Potency index, ratio of Doxorubicin IC50 to test compound IC50 for antiproliferative activity against human A549 cells by MTT colorimetric assay; format: functional
K562 [5] = experiment: Induction of cell cycle arrest in human K562 cells assessed as decrease in accumulation of cells at S phase measured after 72 hrs by PI staining based flow cytometry analysis relative to control; format: functional; design: scale not given: the % may be the effect or the level left
K562 [6] = experiment: Induction of cell cycle arrest in human K562 cells assessed as increase in accumulation of cells at G2/M phase measured after 72 hrs by PI staining based flow cytometry analysis relative to control; format: functional
K562 [7] = experiment: Induction of cell cycle arrest in human K562 cells assessed as decrease in accumulation of cells at subG1 phase measured after 72 hrs by PI staining based flow cytometry analysis relative to control; format: functional; design: scale not given: the % may be the effect or the level left
Cell membrane = experiment: Induction of cell membrane damage in human K562 cells measured after 72 hrs by acridine orange and ethidium bromide staining based analysis relative to control; format: cell membranes
K562 [8] = experiment: Induction of apoptosis in human K562 cells assessed as morphological changes measured after 72 hrs relative to control; format: functional
Raji [9] = experiment: Potency index, ratio of Doxorubicin IC50 to test compound IC50 for antiproliferative activity against human Raji cells by MTT colorimetric assay; format: functional

Row | SMILES | IC50 (K562 [1]) [µM] | IC50 (HL-60) [µM] | IC50 (Jurkat) [µM] | IC50 (Raji [2]) [µM] | IC50 (MCF7) [µM] | IC50 (MDA-MB-231) [µM] | IC50 (HeLa) [µM] | IC50 (A549 [3]) [µM] | IC50 (MRC5) [µM] | Ratio IC50 (A549 [4]) | Activity (K562 [5]) [%] | Activity (K562 [6]) [%] | Activity (K562 [7]) [%] | Activity (Cell membrane) [%] | Activity (K562 [8]) [%] | Ratio IC50 (Raji [9])
1 | O=C1C[C@H]2O[C@@H](C(=O)c3cccs3)[C@H](O)[C@H]2O1 | 2.67 | 1.09 | 1.69 | 5.36 | 1.02 | 5.21 | 3.89 | 18.4 | > 100 | – | – | – | – | – | – | –
2 | O=C1C[C@H]2O[C@H](C(=O)c3cccs3)[C@H](O)[C@H]2O1 | 18.4 | 39.6 | 25.3 | 11.4 | 23.4 | 8.93 | 12.4 | 14.9 | > 100 | – | – | – | – | – | – | –
3 | O=C(/C=C/c1ccc(F)cc1)O[C@H](c1cccs1)[C@H]1O[C@@H]2CC(=O)O[C@@H]2[C@H]1O | 6.56 | 18.9 | 19.7 | 23.9 | 10.5 | 2.11 | 4.63 | 13.3 | > 100 | – | – | – | – | – | – | –
4 | O=C1C[C@H]2O[C@H]([C@@H](O)c3ccccc3)[C@H](O)[C@H]2O1 | – | – | – | – | – | – | – | – | – | – | – | – | >55 | 57.3 | 254.2 | –
5 | O=C(/C=C/c1ccccc1)O[C@@H]1[C@H]2OC(=O)C[C@H]2O[C@@H]1[C@H](OC(=O)/C=C/c1ccccc1)c1cccs1 | 8.36 | 18.2 | 10.3 | 11.1 | 10.8 | 12.3 | 23.8 | 35.6 | > 100 | – | – | – | – | – | – | –
6 | O=C(c1cccs1)[C@H]1OC(O)[C@H](O)[C@H]1O (some centres undefined) | 6.34 | 8.08 | 34 | 20.5 | 15.6 | 16.3 | 5.58 | 5.61 | > 100 | – | – | – | – | – | – | –
7 | O=C(/C=C/c1ccc(F)cc1)O[C@@H]1[C@H]2OC(=O)C[C@H]2O[C@@H]1[C@H](OC(=O)/C=C/c1ccc(F)cc1)c1cccs1 | 0.99 | 14.7 | 10.7 | 22.1 | 5.91 | 9.55 | 4.32 | 9.28 | > 100 | – | – | – | – | – | – | –

Second part, led by results:

Row | IC50 (K562 [1]) [µM] | IC50 (HL-60) [µM] | IC50 (Jurkat) [µM] | IC50 (Raji [2]) [µM] | IC50 (MCF7) [µM] | IC50 (MDA-MB-231) [µM] | IC50 (HeLa) [µM] | IC50 (A549 [3]) [µM] | SMILES | IC50 (MRC5) [µM] | Ratio IC50 (A549 [4]) | Activity (K562 [5]) [%] | Activity (K562 [6]) [%] | Activity (K562 [7]) [%] | Activity (Cell membrane) [%] | Activity (K562 [8]) [%] | Ratio IC50 (Raji [9])
8 | 5.78 | 13 | 2.65 | 15 | 44.9 | 98.8 | 6.21 | 18.8 | O=C1C[C@H]2O[C@H]([C@@H](O)c3cccs3)[C@H](O)[C@H]2O1 | 95.6 | – | – | – | – | – | – | –
9 | 0.03 | 2.07 | 1.01 | 5.97 | 3.38 | 2.88 | 0.11 | 1.2 | O=C1C[C@H]2O[C@H]([C@H](O)c3cccs3)[C@H](O)[C@H]2O1 | > 100 | 4 | 24.2 | 31.2 | >85 | 40.6 | 196.5 | –
10 | 1.02 | 8.46 | 4.41 | 1.36 | 2.63 | 11.6 | 1.59 | 6.58 | CC1(C)O[C@H]2O[C@H]([C@@H](O)c3cccs3)[C@H](O)[C@H]2O1 | > 100 | – | – | – | – | – | – | 2
11 | – | > 100 | – | – | – | – | – | – | O=C1C[C@H]2O[C@H]([C@H](O)c3ccccc3)[C@H](O)[C@H]2O1 | > 100 | – | – | – | – | 31.5 | 145.1 | –
12 | 0.89 | 1.05 | 1.06 | 3.45 | 4.34 | 8.12 | 2.85 | 7.32 | CC1(C)O[C@H]2O[C@H]([C@H](O)c3cccs3)[C@H](O)[C@H]2O1 | > 100 | – | – | – | – | – | – | –
